Here are results for two compounds from ChEMBL document CHEMBL5512667, “Discovery of Potent, Selective, and Orally Available IRE1α Inhibitors Demonstrating Comparable PD Modulation to IRE1 Knockdown in a Multiple Myeloma Model” (J Med Chem, 2024).

Structures are written as SMILES. In brackets after ≈: the same amount, converted by molar mass. Activity calls are given as the source filed them. The rule behind the calls is not given here.

The nature of data set [1]: Apparent permeability across apical to basolateral side in MDCK cells at 10 uM incubated for 3 hrs by LC-MS/MS method. Type of data set: ADME, cell-based, Canis lupus familiaris. As to conditions: dog.
Data set [2] is described as follows: Selectivity ratio of inhibition of HIPK4 (unknown origin) to inhibition of IRE1alpha (unknown origin).
The target in data set [3] is T1, Serine/threonine-protein kinase/endoribonuclease IRE1 (Homo sapiens, UniProt O75460). Briefly: Inhibition of IRE1alpha RNase activity (unknown origin) using XBP1 as substrate preincubated for 1 hr followed by thapsigargin stimulation for 5 hrs by One-Glo luciferase reagent based luminescence assay.
Target sequence in this assay (O75460 whole entry, the tested form may be a part): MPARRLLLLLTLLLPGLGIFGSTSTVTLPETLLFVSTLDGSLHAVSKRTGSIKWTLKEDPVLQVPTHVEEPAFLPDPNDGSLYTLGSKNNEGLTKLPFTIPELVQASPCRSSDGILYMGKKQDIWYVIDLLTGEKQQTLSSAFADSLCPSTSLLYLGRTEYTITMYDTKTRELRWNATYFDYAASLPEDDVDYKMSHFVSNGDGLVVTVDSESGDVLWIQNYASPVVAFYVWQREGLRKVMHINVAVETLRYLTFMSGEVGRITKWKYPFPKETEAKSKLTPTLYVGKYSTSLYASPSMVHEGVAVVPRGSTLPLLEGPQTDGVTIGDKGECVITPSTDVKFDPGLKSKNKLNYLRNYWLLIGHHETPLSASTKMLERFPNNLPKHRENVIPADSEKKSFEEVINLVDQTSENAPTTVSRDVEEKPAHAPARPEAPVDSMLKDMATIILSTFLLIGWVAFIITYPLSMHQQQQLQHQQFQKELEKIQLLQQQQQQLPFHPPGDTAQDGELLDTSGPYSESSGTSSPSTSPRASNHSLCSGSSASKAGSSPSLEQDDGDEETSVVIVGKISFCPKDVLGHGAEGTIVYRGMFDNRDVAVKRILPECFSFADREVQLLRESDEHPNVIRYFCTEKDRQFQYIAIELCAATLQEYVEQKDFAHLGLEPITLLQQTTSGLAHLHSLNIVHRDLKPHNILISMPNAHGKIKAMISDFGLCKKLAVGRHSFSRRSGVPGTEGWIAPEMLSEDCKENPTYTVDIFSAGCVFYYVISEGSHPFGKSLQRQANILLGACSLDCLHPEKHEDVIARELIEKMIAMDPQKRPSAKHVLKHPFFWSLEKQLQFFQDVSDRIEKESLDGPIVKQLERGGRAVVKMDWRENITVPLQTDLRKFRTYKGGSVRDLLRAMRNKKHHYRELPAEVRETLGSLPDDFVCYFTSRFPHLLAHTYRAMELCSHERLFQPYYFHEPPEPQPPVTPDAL
In data set [4] the target is T1, Serine/threonine-protein kinase/endoribonuclease IRE1. Nature of the data set: Inhibition of IRE1alpha RNase activity (Q470 to L977 residues) (unknown origin) expressed in Sf9 cells using mini-XBP-1 stem-loop RNA as substrate measured every 2 mins interval for 50 mins by FRET assay.
Target sequence in this assay (O75460 whole entry, the tested form may be a part): as above
Data set [5] shares this target. Briefly: Inhibition of His-tagged IRE1alpha (G547 to L977 residues) (unknown origin) expressed in Sf9 cells preincubated with anti-His Europium labeled antibody for 1 hr prior to compound addition followed by tracer 236 addition and measured after 1 hr by TR-FRET assay. On the technique in general: In TR-FRET formats the signal depends on donor and acceptor labels being close together.
Target sequence in this assay (O75460 whole entry, the tested form may be a part): as above

Data set [6] is described as follows: Toxicity in Sprague-Dawley rat assessed as hepatocellular hypertrophy at >= 150 mg/kg, po administered twice daily for 7 days. Type of data set: organism-based. The conditions noted are these: in vivo, 168 h, time 7 day.
Data set [7] in a line: Toxicity in Sprague-Dawley rat assessed as increase in hepatic weight at >= 150 mg/kg, po administered twice daily for 7 days. Type of data set: organism-based. The conditions noted are these: in vivo, 168 h, time 7 day.
Data set [8] can be described thus: Toxicity in Sprague-Dawley rat assessed as increase in hepatic enzyme level at 500 mg/kg, po administered twice daily for 7 days. In kind it is organism-based. As to conditions: in vivo, 168 h, time 7 day.
Data set [9] in a line: Toxicity in Sprague-Dawley rat assessed as tolerability upto 500 mg/kg, po administered twice daily for 7 days. Type of data set: organism-based. As to conditions: in vivo, 168 h, time 7 day.
The nature of data set [10]: Plasma protein binding in mouse incubated for 4 hrs by LC-MS/MS based rapid equilibrium dialysis method. Type of data set: ADME, cell-free. The conditions noted are these: read-out: PPB (converted). On the technique in general: In equilibrium dialysis free small molecules cross a membrane that holds back macromolecules.
Data set [11] can be described thus: Kinetic solubility of compound at pH 7.4. Type of data set: physicochemical. As to conditions: buffer, read-out: Kinetic_solubility.
A short description of data set [12]: Volume of distribution at steady state in CD-1 mouse at 10 mg/kg, po or 1 mg/kg, iv measured upto 24 hrs by LC-MS/MS analysis. In kind it is ADME, organism-based. As to conditions: in vivo.
Data set [13] is described as follows: Half-life in CD-1 mouse at 10 mg/kg, po or 1 mg/kg, iv measured upto 24 hrs by LC-MS/MS analysis. As to conditions: in vivo. In kind it is ADME, organism-based.
Data set [14] in a line: Bioavailability in CD-1 mouse at 10 mg/kg, po or 1 mg/kg, iv measured upto 24 hrs by LC-MS/MS analysis. Type of data set: ADME, organism-based. The conditions noted are these: in vivo.
Data set [15] can be described thus: Toxicity in Sprague-Dawley rat assessed as decrease in thymus weight at 500 mg/kg, po administered twice daily for 7 days. In kind it is organism-based. The conditions noted are these: in vivo, 168 h, time 7 day.
Data set [16] is described as follows: Toxicity in Sprague-Dawley rat assessed as decrease in thymic lymphoid depletion at 500 mg/kg, po administered twice daily for 7 days. In kind it is organism-based. As to conditions: in vivo, 168 h, time 7 day.
The nature of data set [17]: Cmax in Sprague-Dawley rat at 500 mg/kg, po administered twice daily for 7 days. In kind it is ADME, organism-based. As to conditions: in vivo, time 7 day.
Data set [18] is described as follows: AUC in Sprague-Dawley rat at 500 mg/kg, po administered twice daily for 7 days. Type of data set: ADME, organism-based. The conditions noted are these: in vivo, time 7 day.
The nature of data set [19]: Cmax in Sprague-Dawley rat at >= 150 mg/kg, po administered twice daily for 7 days. The conditions noted are these: in vivo, time 7 day. Type of data set: ADME, organism-based.
Data set [20] in a line: AUC in Sprague-Dawley rat at >= 150 mg/kg, po administered twice daily for 7 days. In kind it is ADME, organism-based. The conditions noted are these: in vivo, time 7 day.
The target of data set [21] is T1, Serine/threonine-protein kinase/endoribonuclease IRE1. Nature of the data set: Inhibition of IRE1alpha in human KMS-11 cells assessed as reduction in XBP1 splicing preincubated for 24 hrs followed by thapsigargin addition and measured after 30 mins by luminescence assay. Type of data set: cell-based.
Data set [22] shares this target. Briefly: Inhibition of IRE1alpha in human KMS-11 cells assessed as reduction in XBP1 splicing preincubated for 24 hrs followed by thapsigargin addition and measured after 30 mins under FCS medium by luminescence assay. Type of data set: cell-based.
Data set [23] shares this target. Nature of the data set: Inhibition of IRE1alpha RNase activity (unknown origin) using XBP1 as substrate preincubated for 1 hr followed by thapsigargin stimulation for 5 hrs under FCS medium by One-Glo luciferase reagent based luminescence assay.
Target sequence in this assay (O75460 whole entry, the tested form may be a part): as above
Data set [24] relates to Mus musculus. Briefly: In vivo inhibition of IRE1alpha in SCID mouse xenografted with human KMS-11 cells assessed as suppression of XBP1 level in tumor at 250 mg/kg, po BID measured upto 12 hrs. In kind it is functional, organism-based. A general note: A xenograft is tissue or cells of one species grown in another, often human tumour cells in immunodeficient mice.
In data set [25] the test system is Mus musculus. Briefly: In vivo inhibition of IRE1alpha in SCID mouse xenografted with human KMS-11 cells assessed as suppression of XBP1 level in tumor at 250 mg/kg, po BID measured after 16 to 24 hrs. In kind it is functional, organism-based. As to conditions: time 16-24 hrs.
Data set [26] in a line: Permeability across apical to basolateral side in MDCK cells. In kind it is ADME, cell-based, Canis lupus familiaris. As to conditions: dog, read-out: permeability.

By IC50 is commonly meant the point on the concentration scale where inhibition reaches its midpoint. Usually half-life stands for how long it takes for the measured level to halve. The low end stands for rapid decline, the high end for slow decline. By Cmax is commonly meant the maximum level reached in the sampled fluid or tissue. Usually AUC stands for concentration integrated over time. Low values mean low exposure, high ones high exposure. The term IC90 denotes the point of the concentration-response curve where the effect stands at 90%. `O=S(=O)(Cc1ccccc1)Nc1c(F)cc(Oc2ncccc2-c2ccnc(N[C@@H]3CNC[C@@H](F)C3)n2)c(F)c1F`: the Papp A→B at 3 h, 10 µM in data set [1] was found to be 8.7 ×10⁻⁶ cm/s. In data set [2], the Selectivity ratio amounted to 83. The IC50 in data set [3] amounted to 32 nM; in [4], 4.3 nM; in data set [5], 0.27 nM; in [21], 64 nM; in data set [22], 8 nM; in data set [23] it was 4 nM. Also, the Activity result in [6] is recorded as “Toxic”; in data set [7] it was “Toxic”; in [8], “Toxic”; in data set [9] it was “Non-Toxic”; in data set [15], “Toxic”; in data set [16], “Toxic”. The fraction unbound at 4 h in data set [10] was 0.029. Moreover, the solubility kinetic in data set [11] worked out at 65 µM (≈ 38.3 µg/mL). This compound also came in with a Vdss in data set [12] of 1.05 L/kg. For the same compound, in data set [13], the half-life was 33 min. Besides, the bioavailability in [14] is 149%. For the same compound, the Cmax came out at 104 µg/mL in data set [17] and 28.9 µg/mL in [19]. In addition, the AUC at 168 h in data set [18] worked out at 909 µg·h/mL; in [20], 170 µg·h/mL. In addition, the IC90 in [21] (time 24.5 hrs) amounted to 650 nM; in data set [22] (time 24.5 hrs), 79 nM. Moreover, in [24], the inhibition result was “Active”. Also, in data set [25], the inhibition result is “inactive”.
Take `Cc1ccc2c(NS(=O)(=O)c3ccccc3Cl)cccc2c1Oc1ncccc1-c1ccnc(N[C@H]2CCCNC2)n1`: the figures for the IC50 in data set [3], in data set [4] and in [5] were 40 nM, 9.2 nM and 0.48 nM, respectively. In addition, in data set [26], the Papp A→B stood at 1 ×10⁻⁶ cm/s.
